# Test results published in ChEMBL document CHEMBL4804286, “3-amino-4-(4-(4 (dimethylcarbamoyl) phenyl)-1,4-diazepan-1-yl) thieno [2,3-b] pyridine-2-carboxamide for use in cancer therapy and formulations comprising the same” (2020).
# “And” between values parts separate entries of the source, which are not always exact repeats. Identical values can stand only once. The source made the active and inactive calls. The calls are words filed in the database; no cut-off is given here.
# What was measured:
# [1] = target: Serine/threonine-protein kinase WNK3 (Homo sapiens) (UniProt Q9BYP7); test: Inhibition of human WNK3 assessed as percent of control at 2000 nM by KINOMEscan assay relative to control; design: scale not given: the % may be the effect or the level left
# [2] = target: Rho-associated protein kinase 1 (Homo sapiens) (UniProt Q13464); test: Inhibition of human ROCK1 assessed as percent of control at 2000 nM by KINOMEscan assay relative to control; design: scale not given: the % may be the effect or the level left
# [3] = test system: Receptor-type tyrosine-protein kinase FLT3 (Homo sapiens), P36888 [N841I]; test: Inhibition of human FLT3 N841I mutant assessed as percent of control at 2000 nM by KINOMEscan assay relative to control; design: scale not given: the % may be the effect or the level left
# [4] = target: Serine/threonine-protein kinase NIM1 (Homo sapiens) (UniProt Q8IY84); test: Inhibition of human NIM1 assessed as percent of control at 2000 nM by KINOMEscan assay relative to control; design: scale not given: the % may be the effect or the level left
# [5] = target: Calcium/calmodulin-dependent protein kinase kinase 2 (Homo sapiens) (UniProt Q96RR4); test: Inhibition of human CAMKK2 assessed as percent of control at 2000 nM by KINOMEscan assay relative to control; design: scale not given: the % may be the effect or the level left
# [6] = target: Tyrosine-protein kinase Blk (Homo sapiens) (UniProt P51451); test: Inhibition of human BLK assessed as percent of control at 2000 nM by KINOMEscan assay relative to control; design: scale not given: the % may be the effect or the level left
# [7] = target: Hepatocyte growth factor receptor (Homo sapiens) (UniProt P08581); test: Inhibition of human MET assessed as percent of control at 2000 nM by KINOMEscan assay relative to control; design: scale not given: the % may be the effect or the level left
# [8] = target: STE20/SPS1-related proline-alanine-rich protein kinase (Homo sapiens) (UniProt Q9UEW8); test: Inhibition of human STK39 assessed as percent of control at 2000 nM by KINOMEscan assay relative to control; design: scale not given: the % may be the effect or the level left
# [9] = target: Serine/threonine-protein kinase Chk2 (Homo sapiens) (UniProt O96017); test: Inhibition of human CHEK2 assessed as percent of control at 2000 nM by KINOMEscan assay relative to control; design: scale not given: the % may be the effect or the level left
# [10] = test system: Tyrosine-protein kinase ABL1 (Homo sapiens), P00519 [F317I]; test: Inhibition of phosphorylated human ABL1 F317I mutant assessed as percent of control at 2000 nM by KINOMEscan assay relative to control; design: scale not given: the % may be the effect or the level left
# [11] = target: Ephrin type-B receptor 2 (Homo sapiens) (UniProt P29323); test: Inhibition of human EPHB2 assessed as percent of control at 2000 nM by KINOMEscan assay relative to control; design: scale not given: the % may be the effect or the level left
# [12] = target: Tyrosine-protein kinase Lyn (Homo sapiens) (UniProt P07948); test: Inhibition of human LYN assessed as percent of control at 2000 nM by KINOMEscan assay relative to control; design: scale not given: the % may be the effect or the level left
# [13] = test system: Myc-CaP; test: Inhibition of colony formation in murine castration-resistant Myc-CaP cells at 1 uM in presence of 5 uM enzalutamide by clonogenic assay relative to control; assay type: functional; settings: Mus musculus
# [14] = target: Tyrosine-protein kinase JAK3 (Homo sapiens) (UniProt P52333); test: Inhibition of human JAK3 JH1 catalytic domain assessed as percent of control at 2000 nM by KINOMEscan assay relative to control; design: scale not given: the % may be the effect or the level left
# [15] = target: Membrane-associated tyrosine- and threonine-specific cdc2-inhibitory kinase (Homo sapiens) (UniProt Q99640); test: Inhibition of human PKMYT1 assessed as percent of control at 2000 nM by KINOMEscan assay relative to control; design: scale not given: the % may be the effect or the level left
# [16] = target: Phosphatidylinositol 4,5-bisphosphate 3-kinase catalytic subunit delta isoform (Homo sapiens) (UniProt O00329); test: Inhibition of human PIK3CD assessed as percent of control at 2000 nM by KINOMEscan assay relative to control; design: scale not given: the % may be the effect or the level left
# [17] = target: Serine/threonine-protein kinase STK11 (Homo sapiens) (UniProt Q15831); test: Inhibition of human LKB1 assessed as percent of control at 2000 nM by KINOMEscan assay relative to control; design: scale not given: the % may be the effect or the level left
# [18] = test system: Myc-CaP; test: Antitumor activity against murine castration-resistant Myc-CaP cells xenografted in male FVB mouse assessed as suppression of tumor volume in presence of enzalutamide; assay type: functional
# [19] = target: Rhodopsin kinase GRK7 (Homo sapiens) (UniProt Q8WTQ7); test: Inhibition of human GRK7 assessed as percent of control at 2000 nM by KINOMEscan assay relative to control; design: scale not given: the % may be the effect or the level left
# [20] = target: Ribosomal protein S6 kinase alpha-5 (Homo sapiens) (UniProt O75582); test: Inhibition of human C-terminal RPS6KA5 kinase domain 2 assessed as percent of control at 2000 nM by KINOMEscan assay relative to control; design: scale not given: the % may be the effect or the level left
# [21] = target: Receptor tyrosine-protein kinase erbB-3 (Homo sapiens) (UniProt P21860); test: Inhibition of human ERBB3 assessed as percent of control at 2000 nM by KINOMEscan assay relative to control; design: scale not given: the % may be the effect or the level left
# [22] = target: Homeodomain-interacting protein kinase 3 (Homo sapiens) (UniProt Q9H422); test: Inhibition of human HIPK3 assessed as percent of control at 2000 nM by KINOMEscan assay relative to control; design: scale not given: the % may be the effect or the level left
# [23] = target: Misshapen-like kinase 1 (Homo sapiens) (UniProt Q8N4C8); test: Inhibition of human MINK assessed as percent of control at 2000 nM by KINOMEscan assay relative to control; design: scale not given: the % may be the effect or the level left
# [24] = target: Mitogen-activated protein kinase 11 (Homo sapiens) (UniProt Q15759); test: Inhibition of human p38-beta assessed as percent of control at 2000 nM by KINOMEscan assay relative to control; design: scale not given: the % may be the effect or the level left
# [25] = target: Mitogen-activated protein kinase 15 (Homo sapiens) (UniProt Q8TD08); test: Inhibition of human ERK8 assessed as percent of control at 2000 nM by KINOMEscan assay relative to control; design: scale not given: the % may be the effect or the level left
# [26] = target: Serine/threonine-protein kinase tousled-like 1 (Homo sapiens) (UniProt Q9UKI8); test: Inhibition of human TLK1 assessed as percent of control at 2000 nM by KINOMEscan assay relative to control; design: scale not given: the % may be the effect or the level left
# [27] = target: Receptor-type tyrosine-protein kinase FLT3 (Homo sapiens) (UniProt P36888); test: Inhibition of human autoinhibited FLT3 assessed as percent of control at 2000 nM by KINOMEscan assay relative to control; design: scale not given: the % may be the effect or the level left
# [28] = target: Serine/threonine-protein kinase SIK2 (Homo sapiens) (UniProt Q9H0K1); test: Inhibition of human SIK2 assessed as percent of control at 2000 nM by KINOMEscan assay relative to control; design: scale not given: the % may be the effect or the level left
# [29] = target: Non-receptor tyrosine-protein kinase TYK2 (Homo sapiens) (UniProt P29597); test: Inhibition of human TYK2 JH2 pseudokinase domain assessed as percent of control at 2000 nM by KINOMEscan assay relative to control; design: scale not given: the % may be the effect or the level left
# [30] = target: SRSF protein kinase 1 (Homo sapiens) (UniProt Q96SB4); test: Inhibition of human SRPK1 assessed as percent of control at 2000 nM by KINOMEscan assay relative to control; design: scale not given: the % may be the effect or the level left
# [31] = test system: Mast/stem cell growth factor receptor Kit (Homo sapiens), P10721 [D816V]; test: Inhibition of human KIT D816V mutant assessed as percent of control at 2000 nM by KINOMEscan assay relative to control; design: scale not given: the % may be the effect or the level left
# Mast/stem cell growth factor receptor Kit (Homo sapiens), P10721 [D816V], sequence (P10721 whole entry D816V): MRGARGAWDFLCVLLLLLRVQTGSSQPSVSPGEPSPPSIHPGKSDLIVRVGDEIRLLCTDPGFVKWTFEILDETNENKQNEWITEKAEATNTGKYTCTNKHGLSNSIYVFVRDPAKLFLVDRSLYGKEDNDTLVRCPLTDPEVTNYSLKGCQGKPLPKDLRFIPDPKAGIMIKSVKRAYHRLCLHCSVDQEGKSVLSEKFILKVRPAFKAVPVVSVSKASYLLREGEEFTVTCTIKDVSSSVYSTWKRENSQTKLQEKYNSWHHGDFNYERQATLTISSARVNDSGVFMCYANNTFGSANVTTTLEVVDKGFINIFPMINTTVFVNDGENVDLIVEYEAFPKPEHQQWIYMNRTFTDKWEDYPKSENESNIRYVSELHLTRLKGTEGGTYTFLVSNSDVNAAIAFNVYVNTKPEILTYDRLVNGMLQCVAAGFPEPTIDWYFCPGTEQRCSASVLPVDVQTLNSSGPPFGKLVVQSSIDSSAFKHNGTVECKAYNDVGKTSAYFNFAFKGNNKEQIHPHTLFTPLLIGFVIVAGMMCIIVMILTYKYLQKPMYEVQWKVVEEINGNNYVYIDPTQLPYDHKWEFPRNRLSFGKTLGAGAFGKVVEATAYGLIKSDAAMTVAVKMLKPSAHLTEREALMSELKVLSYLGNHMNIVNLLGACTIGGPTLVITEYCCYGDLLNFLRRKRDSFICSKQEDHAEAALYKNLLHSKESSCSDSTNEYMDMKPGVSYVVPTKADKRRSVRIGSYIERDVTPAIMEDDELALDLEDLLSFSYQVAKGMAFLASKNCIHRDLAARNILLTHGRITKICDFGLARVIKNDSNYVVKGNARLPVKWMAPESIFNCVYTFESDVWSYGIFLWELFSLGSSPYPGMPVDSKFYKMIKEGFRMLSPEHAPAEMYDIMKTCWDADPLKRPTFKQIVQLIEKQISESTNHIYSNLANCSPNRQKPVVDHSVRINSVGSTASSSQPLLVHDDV
# Tyrosine-protein kinase Lyn (Homo sapiens), sequence (P07948 2-512 limits assumed): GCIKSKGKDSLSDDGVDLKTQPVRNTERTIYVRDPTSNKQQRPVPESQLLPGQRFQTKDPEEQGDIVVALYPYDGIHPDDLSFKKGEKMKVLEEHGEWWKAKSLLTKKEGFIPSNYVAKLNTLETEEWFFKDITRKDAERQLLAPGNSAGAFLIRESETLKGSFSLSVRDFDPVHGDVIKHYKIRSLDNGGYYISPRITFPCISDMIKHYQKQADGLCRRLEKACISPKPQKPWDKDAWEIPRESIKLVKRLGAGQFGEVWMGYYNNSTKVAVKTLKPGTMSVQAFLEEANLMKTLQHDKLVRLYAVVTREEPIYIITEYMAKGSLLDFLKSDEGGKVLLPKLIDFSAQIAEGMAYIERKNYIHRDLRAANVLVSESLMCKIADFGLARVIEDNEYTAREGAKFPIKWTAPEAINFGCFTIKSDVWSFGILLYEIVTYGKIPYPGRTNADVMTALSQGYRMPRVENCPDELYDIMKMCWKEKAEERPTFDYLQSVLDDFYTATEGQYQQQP
# Membrane-associated tyrosine- and threonine-specific cdc2-inhibitory kinase (Homo sapiens), sequence (Q99640 whole entry, canonical isoform): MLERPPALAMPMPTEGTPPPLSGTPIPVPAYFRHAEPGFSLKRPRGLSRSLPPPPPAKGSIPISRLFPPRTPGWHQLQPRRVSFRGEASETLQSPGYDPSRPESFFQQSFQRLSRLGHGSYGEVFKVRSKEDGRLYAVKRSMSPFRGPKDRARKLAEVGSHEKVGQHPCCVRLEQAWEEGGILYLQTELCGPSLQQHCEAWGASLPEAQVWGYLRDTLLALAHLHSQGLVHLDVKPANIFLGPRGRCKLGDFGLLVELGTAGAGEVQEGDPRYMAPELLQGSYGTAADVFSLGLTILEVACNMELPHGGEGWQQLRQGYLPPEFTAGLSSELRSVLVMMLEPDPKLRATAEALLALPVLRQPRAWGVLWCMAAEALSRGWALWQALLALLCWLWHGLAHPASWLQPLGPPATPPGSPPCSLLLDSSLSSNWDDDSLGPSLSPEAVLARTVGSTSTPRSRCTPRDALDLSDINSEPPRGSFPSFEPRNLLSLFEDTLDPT
# Non-receptor tyrosine-protein kinase TYK2 (Homo sapiens), sequence (P29597 whole entry, the tested form may be a part): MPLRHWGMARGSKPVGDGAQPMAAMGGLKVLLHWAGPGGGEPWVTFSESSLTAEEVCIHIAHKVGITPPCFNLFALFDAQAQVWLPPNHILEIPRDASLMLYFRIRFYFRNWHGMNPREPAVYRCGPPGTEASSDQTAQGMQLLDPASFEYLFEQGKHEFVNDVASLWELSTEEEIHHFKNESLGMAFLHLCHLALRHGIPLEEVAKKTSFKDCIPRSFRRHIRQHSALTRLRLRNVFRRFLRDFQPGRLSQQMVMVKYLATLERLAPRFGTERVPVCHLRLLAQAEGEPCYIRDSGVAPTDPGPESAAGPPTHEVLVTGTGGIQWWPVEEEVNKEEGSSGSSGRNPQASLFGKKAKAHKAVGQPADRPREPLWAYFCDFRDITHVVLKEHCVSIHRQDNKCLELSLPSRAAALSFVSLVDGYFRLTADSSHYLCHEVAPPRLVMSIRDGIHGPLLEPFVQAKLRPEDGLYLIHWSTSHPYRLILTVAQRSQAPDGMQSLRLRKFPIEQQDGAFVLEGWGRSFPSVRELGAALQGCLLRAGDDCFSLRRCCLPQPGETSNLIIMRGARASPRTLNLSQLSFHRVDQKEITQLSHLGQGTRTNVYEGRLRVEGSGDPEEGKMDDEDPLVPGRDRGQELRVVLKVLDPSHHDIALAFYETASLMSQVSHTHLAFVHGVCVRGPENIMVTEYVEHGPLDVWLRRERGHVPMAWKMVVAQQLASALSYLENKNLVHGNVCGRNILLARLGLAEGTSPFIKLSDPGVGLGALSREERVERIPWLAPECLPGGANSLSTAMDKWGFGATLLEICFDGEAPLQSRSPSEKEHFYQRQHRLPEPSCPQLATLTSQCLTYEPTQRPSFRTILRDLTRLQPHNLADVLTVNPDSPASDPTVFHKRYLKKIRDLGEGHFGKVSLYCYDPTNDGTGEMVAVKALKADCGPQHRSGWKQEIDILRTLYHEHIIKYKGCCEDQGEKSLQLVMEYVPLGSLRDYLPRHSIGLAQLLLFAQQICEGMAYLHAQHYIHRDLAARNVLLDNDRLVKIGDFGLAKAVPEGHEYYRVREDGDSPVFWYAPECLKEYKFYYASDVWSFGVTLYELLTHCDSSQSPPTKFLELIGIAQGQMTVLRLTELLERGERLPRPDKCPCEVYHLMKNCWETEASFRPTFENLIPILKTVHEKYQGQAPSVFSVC
# Tyrosine-protein kinase JAK3 (Homo sapiens), sequence (P52333 whole entry, the tested form may be a part): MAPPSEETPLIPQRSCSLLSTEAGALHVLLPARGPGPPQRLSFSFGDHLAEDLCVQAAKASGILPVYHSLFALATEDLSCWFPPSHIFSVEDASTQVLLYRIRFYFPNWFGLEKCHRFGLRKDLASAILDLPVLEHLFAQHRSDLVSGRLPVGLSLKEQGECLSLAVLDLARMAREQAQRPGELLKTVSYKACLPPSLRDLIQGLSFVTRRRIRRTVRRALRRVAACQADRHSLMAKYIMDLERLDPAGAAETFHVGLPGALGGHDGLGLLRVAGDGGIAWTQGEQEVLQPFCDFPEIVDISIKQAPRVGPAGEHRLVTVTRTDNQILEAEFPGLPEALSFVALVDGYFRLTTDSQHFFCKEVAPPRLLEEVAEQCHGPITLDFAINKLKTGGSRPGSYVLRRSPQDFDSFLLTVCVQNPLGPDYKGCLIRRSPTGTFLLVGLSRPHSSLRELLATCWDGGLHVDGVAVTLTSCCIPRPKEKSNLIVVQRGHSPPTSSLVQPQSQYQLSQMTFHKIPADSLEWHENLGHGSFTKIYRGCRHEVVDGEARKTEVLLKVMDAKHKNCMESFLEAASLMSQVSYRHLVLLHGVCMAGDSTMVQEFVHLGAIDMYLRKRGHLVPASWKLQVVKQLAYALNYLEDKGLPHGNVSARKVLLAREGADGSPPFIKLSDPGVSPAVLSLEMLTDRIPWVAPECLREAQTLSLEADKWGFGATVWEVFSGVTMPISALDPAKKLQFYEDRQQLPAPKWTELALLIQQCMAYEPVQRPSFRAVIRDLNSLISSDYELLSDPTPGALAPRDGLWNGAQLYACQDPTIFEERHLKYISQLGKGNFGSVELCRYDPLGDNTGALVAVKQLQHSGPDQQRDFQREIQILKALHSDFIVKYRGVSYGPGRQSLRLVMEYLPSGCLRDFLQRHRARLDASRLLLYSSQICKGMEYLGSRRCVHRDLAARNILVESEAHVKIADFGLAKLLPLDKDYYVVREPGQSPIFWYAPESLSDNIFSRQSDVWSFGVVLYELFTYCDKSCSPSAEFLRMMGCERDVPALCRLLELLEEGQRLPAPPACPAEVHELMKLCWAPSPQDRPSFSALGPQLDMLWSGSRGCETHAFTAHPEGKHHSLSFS
# Rhodopsin kinase GRK7 (Homo sapiens), sequence (Q8WTQ7 whole entry, the tested form may be a part): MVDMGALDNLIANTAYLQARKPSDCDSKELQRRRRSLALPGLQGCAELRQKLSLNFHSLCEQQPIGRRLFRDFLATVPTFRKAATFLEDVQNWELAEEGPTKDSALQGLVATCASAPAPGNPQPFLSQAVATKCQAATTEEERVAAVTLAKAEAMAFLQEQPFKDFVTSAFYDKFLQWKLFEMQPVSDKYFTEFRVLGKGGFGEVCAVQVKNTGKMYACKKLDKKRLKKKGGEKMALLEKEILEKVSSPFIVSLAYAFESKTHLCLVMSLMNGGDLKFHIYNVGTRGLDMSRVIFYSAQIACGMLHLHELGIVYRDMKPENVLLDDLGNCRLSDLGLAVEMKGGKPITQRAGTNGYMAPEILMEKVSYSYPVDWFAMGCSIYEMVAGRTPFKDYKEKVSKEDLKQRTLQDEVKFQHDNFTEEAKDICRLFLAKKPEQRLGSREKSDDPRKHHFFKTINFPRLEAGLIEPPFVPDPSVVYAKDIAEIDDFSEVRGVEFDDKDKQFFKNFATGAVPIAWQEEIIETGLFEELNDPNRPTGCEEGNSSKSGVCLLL
smiles,measurement,setting,value
CN(C)C(=O)c1ccc(N2CCCN(c3ccnc4sc(C(N)=O)c(N)c34)CC2)cc1,Activity,[1],97% and 100%
same,Activity,[2],77% and 67%
same,Activity,[3],90% and 86%
same,Activity,[4],56% and 78%
same,Activity,[5],100% and 87%
same,Activity,[6],100% and 92%
same,Activity,[7],99% and 92%
same,Activity,[8],93% and 94%
same,Activity,[9],92%
same,Activity,[10],88% and 84%
same,Activity,[11],99% and 95%
same,Activity,[12],100% and 98%
same,inhibition,[13],Active
same,Activity,[14],83% and 80%
same,Activity,[15],91% and 94%
same,Activity,[16],94% and 71%
same,Activity,[17],100% and 87%
same,Activity,[18],Active
same,Activity,[19],100% and 92%
same,Activity,[20],95% and 100%
same,Activity,[21],100% and 88%
same,Activity,[22],77% and 81%
same,Activity,[23],100% and 87%
same,Activity,[24],100% and 97%
same,Activity,[25],98% and 99%
same,Activity,[26],97% and 85%
same,Activity,[27],72% and 77%
same,Activity,[28],96% and 100%
same,Activity,[29],73% and 59%
same,Activity,[30],100% and 97%
same,Activity,[31],93% and 79%
